Experimental data from patent US20240409581A1, “SMALL-MOLECULE PEPTIDE AND USE THEREOF AGAINST METABOLIC-[…] LIVER DISEASE AND FOR REDUCING BODY WEIGHT” (Tunghai University, priority 2023, published 2024).

Tests used:
Assay type in all cases: in vivo, C57BL/6JNarl mice (male)
[1] = system: MAFLD-mode mice (diet with 60% kcal fat+30% v/v fructose corn syrup); assay: Biochemical analysis of blood (sALT and serum lipid indices) of MAFLD-mode mice; details: eight weeks
Experimental: (§1) 100 five-week-old C57BL/6JNarl mice (male) were raised in an environment whose temperature was 22-25° C., whose relative humidity was 45%-60%, and which adopted a 12-hour light/12-hour darkness cycle. The mice were fed with common feed and water for three weeks and then randomly divided into 10 groups, whose subsequent treatments are as follows:
(§2) Each of the four peptides was mixed with 0.5% Carboxymethyl Cellulose (CMC) to form a peptide solution, before the peptide solution was fed into the stomach of each mouse in the corresponding group with a syringe.
(§3) The test lasted eight weeks. The body weights of, and the amounts of food consumed by, the mice in each group were measured and recorded each week. The mice were sacrificed at the end of the test, and the livers, spleens, and white adipose tissue of the mice in each group were weighed.
After the test of example 1, blood samples were taken from the mice in each group, and the serum alanine transaminase (sALT), serum triglyceride (sTG), serum total cholesterol (sTC), serum free fatty acid (sFFA), and serum very-low-density lipoprotein (sVLDL) levels of the blood samples were measured.

[2] = system: MAFLD-mode mice (diet with 60% kcal fat+30% v/v fructose corn syrup); assay: Animal test: body, liver, spleen and white adipose tissue weights of MAFLD-mode mice; details: for Epididymal white adipose tissue / Final body weight / Liver weight / Mesenteric white adipose tissue / Perirenal white adipose tissue / Spleen weight: eight weeks, high-fat/fructose diet; for Initial body weight: before the eight-week test
Experimental: as §1
Group 1: This was the blank group. The mice in this group were fed with common animal feed and distilled water.
Group 2: This was the control group. The mice in this group were fed with a diet with 60% kcal fat+30% v/v fructose corn syrup (and a 0.5% carboxymethyl cellulose (CMC) solution) and thereby induced to develop into MAFLD-mode mice.
Group 3: This was the low-dosage YF dipeptide group. The mice in this group were fed with the Tyr-Phe dipeptide at a dose of 10 mg/kg/day, in addition to a diet with 60% kcal fat+30% v/v fructose corn syrup.
Group 4: This was the high-dosage YF dipeptide group. The mice in this group were fed with the Tyr-Phe dipeptide at a dose of 50 mg/kg/day, in addition to a diet with 60% kcal fat+30% v/v fructose corn syrup.
Group 5: This was the low-dosage FY dipeptide group. The mice in this group were fed with the Phe-Tyr dipeptide at a dose of 10 mg/kg/day, in addition to a diet with 60% kcal fat+30% v/v fructose corn syrup.
Group 6: This was the high-dosage FY dipeptide group. The mice in this group were fed with the Phe-Tyr dipeptide at a dose of 50 mg/kg/day, in addition to a diet with 60% kcal fat+30% v/v fructose corn syrup.
Group 7: This was the low-dosage EWYF tetrapeptide group. The mice in this group were fed with the Glu-Trp-Tyr-Phe tetrapeptide (which has the sequence of SEQ ID No.: 1) at a dose of 10 mg/kg/day, in addition to a diet with 60% kcal fat+30% v/v fructose corn syrup.
Group 8: This was the high-dosage EWYF tetrapeptide group. The mice in this group were fed with the Glu-Trp-Tyr-Phe tetrapeptide (which has the sequence of SEQ ID No.: 1) at a dose of 50 mg/kg/day, in addition to a diet with 60% kcal fat+30% v/v fructose corn syrup.
Group 9: This was the low-dosage EWFY tetrapeptide group. The mice in this group were fed with the Glu-Trp-Phe-Tyr tetrapeptide (which has the sequence of SEQ ID No.: 2) at a dose of 10 mg/kg/day, in addition to a diet with 60% kcal fat+30% v/v fructose corn syrup.
Group 10: This was the high-dosage EWFY tetrapeptide group. The mice in this group were fed with the Glu-Trp-Phe-Tyr tetrapeptide (which has the sequence of SEQ ID No.: 2) at a dose of 50 mg/kg/day, in addition to a diet with 60% kcal fat+30% v/v fructose corn syrup.
as §2, §3

[3] = system: MAFLD-mode mice (diet with 60% kcal fat+30% v/v fructose corn syrup); assay: Analysis of the hepatic lipid content (enzymatic colorimetric method) of MAFLD-mode mice; details: eight weeks, liver; for hVLDL (hepatic very-low-density lipoprotein): calculated as 1/5 of the hepatic triglyceride level;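 on hTC (hepatic total cholesterol): reported in mg/dL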;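 on hTG (hepatic triglyceride): reported in mg/dL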;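 on hVLDL (hepatic very-low-density lipoprotein): reported in mg/dL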
Experimental: as §1, §2, §3
After the test of example 1, the mice in each group were sacrificed, and the livers of the mice were collected in order to measure the hepatic lipid content of the liver of each mouse by an enzymatic colorimetric method. The items measured were hepatic triglyceride (hTG), hepatic total cholesterol (hTC), hepatic free fatty acid (hFFA), and hepatic very-low-density lipoprotein (hVLDL), wherein the hVLDL level was calculated as ⅕ of the hepatic triglyceride level.

[4] = baseline of the 10 mg/kg/day group
[5] = baseline of the 50 mg/kg/day group

Substance | sALT (serum alanine transaminase) ([1]; 10 mg/kg/day) | sFFA (serum free fatty acid) ([1]; 10 mg/kg/day) | sTC (serum total cholesterol) ([1]; 10 mg/kg/day) | sTG (serum triglyceride) ([1]; 10 mg/kg/day) | sVLDL (serum very-low-density lipoprotein) ([1]; 10 mg/kg/day) | sALT (serum alanine transaminase) ([1]; 50 mg/kg/day) | sFFA (serum free fatty acid) ([1]; 50 mg/kg/day) | sTC (serum total cholesterol) ([1]; 50 mg/kg/day) | sTG (serum triglyceride) ([1]; 50 mg/kg/day) | sVLDL (serum very-low-density lipoprotein) ([1]; 50 mg/kg/day) | Epididymal white adipose tissue ([2]; 10 mg/kg/day into the stomach) | Final body weight ([2]; 10 mg/kg/day into the stomach) | Liver weight ([2]; 10 mg/kg/day into the stomach) | Mesenteric white adipose tissue ([2]; 10 mg/kg/day into the stomach) | Perirenal white adipose tissue ([2]; 10 mg/kg/day into the stomach) | Spleen weight ([2]; 10 mg/kg/day into the stomach) | Epididymal white adipose tissue ([2]; 50 mg/kg/day into the stomach) | Final body weight ([2]; 50 mg/kg/day into the stomach) | Liver weight ([2]; 50 mg/kg/day into the stomach) | Mesenteric white adipose tissue ([2]; 50 mg/kg/day into the stomach) | further results
Glu-Trp-Phe-Tyr (EWFY) [groups 9 (10 mg/kg/day) and 10 (50 mg/kg/day)] | 45.6 ± 13.91 IU/L | 0.849 ± 0.235 mEq/L | 147.45 ± 25.19 mg/dL | 100.53 ± 20.83 mg/dL | 20.11 ± 4.17 mg/dL | 34.2 ± 16.20 IU/L | 0.757 ± 0.303 mEq/L | 135.78 ± 23.48 mg/dL | 91.47 ± 18.50 mg/dL | 18.29 ± 3.70 mg/dL | 1.294 ± 0.330 g | 30.04 ± 1.70 g | 1.028 ± 0.068 g | 0.276 ± 0.081 g | 0.513 ± 0.132 g | 56.6 ± 7.0 mg | 0.983 ± 0.231 g | 28.59 ± 1.82 g | 0.985 ± 0.072 g | 0.234 ± 0.056 g | Perirenal white adipose tissue ([2]; 50 mg/kg/day into the stomach): 0.445 ± 0.077 g; Spleen weight ([2]; 50 mg/kg/day into the stomach): 53.5 ± 5.7 mg; Initial body weight [2, 4]: 22.89 ± 1.08 g; Initial body weight [2, 5]: 22.78 ± 1.79 g; hFFA (hepatic free fatty acid) ([3]; 10 mg/kg/day): 111.78 ± 27.75 mEq/L; hTC (hepatic total cholesterol) ([3]; 10 mg/kg/day): 11.04 ± 1.11 mg/dL; hTG (hepatic triglyceride) ([3]; 10 mg/kg/day): 41.45 ± 9.45 mg/dL; hVLDL (hepatic very-low-density lipoprotein) ([3]; 10 mg/kg/day): 8.29 ± 1.89 mg/dL; hFFA (hepatic free fatty acid) ([3]; 50 mg/kg/day): 74.05 ± 19.5 mEq/L; hTC (hepatic total cholesterol) ([3]; 50 mg/kg/day): 5.96 ± 0.91 mg/dL; hTG (hepatic triglyceride) ([3]; 50 mg/kg/day): 22.47 ± 4.84 mg/dL; hVLDL (hepatic very-low-density lipoprotein) ([3]; 50 mg/kg/day): 4.49 ± 0.97 mg/dL
Glu-Trp-Tyr-Phe (EWYF) [groups 7 (10 mg/kg/day) and 8 (50 mg/kg/day)] | 39.3 ± 20.17 IU/L | 0.782 ± 0.309 mEq/L | 139.71 ± 20.52 mg/dL | 96.18 ± 21.42 mg/dL | 19.24 ± 4.28 mg/dL | 27.9 ± 14.00 IU/L | 0.692 ± 0.24 mEq/L | 126.96 ± 24.59 mg/dL | 81.84 ± 20.39 mg/dL | 16.37 ± 4.08 mg/dL | 1.146 ± 0.306 g | 29.76 ± 1.77 g | 0.988 ± 0.084 g | 0.263 ± 0.070 g | 0.499 ± 0.060 g | 55.5 ± 6.4 mg | 0.909 ± 0.269 g | 27.42 ± 1.97 g | 0.973 ± 0.089 g | 0.199 ± 0.061 g | Perirenal white adipose tissue ([2]; 50 mg/kg/day into the stomach): 0.418 ± 0.104 g; Spleen weight ([2]; 50 mg/kg/day into the stomach): 51.2 ± 5.9 mg; Initial body weight [2, 4]: 22.84 ± 1.71 g; Initial body weight [2, 5]: 22.82 ± 1.13 g; hFFA (hepatic free fatty acid) ([3]; 10 mg/kg/day): 108.17 ± 26.92 mEq/L; hTC (hepatic total cholesterol) ([3]; 10 mg/kg/day): 10.74 ± 1.38 mg/dL; hTG (hepatic triglyceride) ([3]; 10 mg/kg/day): 39.45 ± 9.93 mg/dL; hVLDL (hepatic very-low-density lipoprotein) ([3]; 10 mg/kg/day): 7.89 ± 1.99 mg/dL; hFFA (hepatic free fatty acid) ([3]; 50 mg/kg/day): 87.71 ± 21.90 mEq/L; hTC (hepatic total cholesterol) ([3]; 50 mg/kg/day): 8.19 ± 1.07 mg/dL; hTG (hepatic triglyceride) ([3]; 50 mg/kg/day): 31.49 ± 8.04 mg/dL; hVLDL (hepatic very-low-density lipoprotein) ([3]; 50 mg/kg/day): 6.29 ± 1.61 mg/dL
Phe-Tyr [FY] | 53.1 ± 21.40 IU/L | 1.03 ± 0.338 mEq/L | 158.43 ± 20.37 mg/dL | 106.80 ± 23.45 mg/dL | 21.36 ± 4.69 mg/dL | 42.6 ± 17.60 IU/L | 0.905 ± 0.179 mEq/L | 146.76 ± 19.73 mg/dL | 97.80 ± 22.91 mg/dL | 19.56 ± 4.58 mg/dL | 1.328 ± 0.234 g | 30.10 ± 1.29 g | 1.037 ± 0.089 g | 0.289 ± 0.055 g | 0.544 ± 0.077 g | 58.8 ± 7.2 mg | 1.220 ± 0.301 g | 28.93 ± 1.27 g | 0.991 ± 0.078 g | 0.257 ± 0.067 g | Perirenal white adipose tissue ([2]; 50 mg/kg/day into the stomach): 0.487 ± 0.098 g; Spleen weight ([2]; 50 mg/kg/day into the stomach): 54.2 ± 5.6 mg; Initial body weight [2, 4]: 22.88 ± 1.09 g; Initial body weight [2, 5]: 22.75 ± 1.10 g; hFFA (hepatic free fatty acid) ([3]; 10 mg/kg/day): 119.27 ± 29.07 mEq/L; hTC (hepatic total cholesterol) ([3]; 10 mg/kg/day): 12.06 ± 1.19 mg/dL; hTG (hepatic triglyceride) ([3]; 10 mg/kg/day): 44.58 ± 6.77 mg/dL; hVLDL (hepatic very-low-density lipoprotein) ([3]; 10 mg/kg/day): 8.92 ± 1.35 mg/dL; hFFA (hepatic free fatty acid) ([3]; 50 mg/kg/day): 112.49 ± 25.02 mEq/L; hTC (hepatic total cholesterol) ([3]; 50 mg/kg/day): 10.97 ± 1.2 mg/dL; hTG (hepatic triglyceride) ([3]; 50 mg/kg/day): 41.49 ± 8.52 mg/dL; hVLDL (hepatic very-low-density lipoprotein) ([3]; 50 mg/kg/day): 8.30 ± 1.70 mg/dL
Tyr-Phe [YF] | 44.4 ± 15.09 IU/L | 0.932 ± 0.336 mEq/L | 155.01 ± 25.12 mg/dL | 103.38 ± 22.62 mg/dL | 20.68 ± 4.52 mg/dL | 36.3 ± 15.97 IU/L | 0.813 ± 0.243 mEq/L | 140.70 ± 22.66 mg/dL | 95.19 ± 24.70 mg/dL | 19.04 ± 4.94 mg/dL | 1.452 ± 0.433 g | 30.22 ± 2.07 g | 0.996 ± 0.094 g | 0.298 ± 0.088 g | 0.526 ± 0.069 g | 59.9 ± 8.2 mg | 1.182 ± 0.265 g | 28.98 ± 1.76 g | 0.982 ± 0.085 g | 0.251 ± 0.056 g | Perirenal white adipose tissue ([2]; 50 mg/kg/day into the stomach): 0.481 ± 0.080 g; Spleen weight ([2]; 50 mg/kg/day into the stomach): 53.8 ± 6.4 mg; Initial body weight [2, 4]: 22.82 ± 1.01 g; Initial body weight [2, 5]: 22.84 ± 1.25 g; hFFA (hepatic free fatty acid) ([3]; 10 mg/kg/day): 110.93 ± 21.96 mEq/L; hTC (hepatic total cholesterol) ([3]; 10 mg/kg/day): 11.22 ± 1.23 mg/dL; hTG (hepatic triglyceride) ([3]; 10 mg/kg/day): 41.81 ± 8.32 mg/dL; hVLDL (hepatic very-low-density lipoprotein) ([3]; 10 mg/kg/day): 8.36 ± 1.66 mg/dL; hFFA (hepatic free fatty acid) ([3]; 50 mg/kg/day): 98.90 ± 24.07 mEq/L; hTC (hepatic total cholesterol) ([3]; 50 mg/kg/day): 9.76 ± 1.45 mg/dL; hTG (hepatic triglyceride) ([3]; 50 mg/kg/day): 36.95 ± 8.33 mg/dL; hVLDL (hepatic very-low-density lipoprotein) ([3]; 50 mg/kg/day): 7.39 ± 1.67 mg/dL
